Data published in ChEMBL document CHEMBL1127135, “Synthesis and biological properties of 3-[()-2-(1,2,3-Thiadiazolyl)ethenyl]-substituted cephalosporins and related compounds: new oral cephalosporins” (Bioorg Med Chem Lett, 1993).
In brackets after ≈: the same amount, converted by molar mass.

Legend:
Staphylococcus aureus [1] = test: Antibacterial activity against Staphylococcus aureus 209P-JC was determined; assay type: functional
Proteus mirabilis = test: Antibacterial activity against Proteus mirabilis IFO3849 was determined; assay type: functional
Enterococcus hirae = test: Antibacterial activity against Enterococcus hirae ATCC 8043 was determined; assay type: functional
Enterobacter cloacae = test: Antibacterial activity against Enterobacter cloacae 963 was determined; assay type: functional
Escherichia coli [2] = test: Antibacterial activity against Escherichia coli ATCC 25922 was determined; assay type: functional
Staphylococcus aureus [3] = test: Antibacterial activity against Staphylococcus aureus ATCC 25923 was determined; assay type: functional
Proteus vulgaris = test: Antibacterial activity against Proteus vulgaris HX-19 was determined; assay type: functional
Providencia rettgeri = test: Antibacterial activity against Providencia rettgeri IFO3850 was determined; assay type: functional
Klebsiella aerogenes = test: Antibacterial activity against Enterobacter aerogenes IFO 13048 was determined; assay type: functional
Moraxella catarrhalis = test: Antibacterial activity against M(B). catarrhalis ATCC 25238 was determined; assay type: functional
Micrococcus luteus [4] = test: Antibacterial activity against Micrococcus luteus ATCC 9341 was determined; assay type: functional
Serratia marcescens = test: Antibacterial activity against Serratia marcescens IID 618 was determined; assay type: functional
Morganella morganii = test: Antibacterial activity against Morganella morganii IID 602 was determined; assay type: functional
Klebsiella pneumoniae [5] = test: Antibacterial activity against Klebsiella pneumoniae IFO 3317 was determined; assay type: functional
Escherichia coli [6] = test: Antibacterial activity against Escherichia coli NIHJ JC-2 was determined; assay type: functional
[7] = tested on: Staphylococcus epidermidis; test: Antibacterial activity against Staphylococcus epidermidis IID 866 was determined; assay type: functional
Pseudomonas aeruginosa = test: Antibacterial activity against Pseudomonas aeruginosa NCTC 10490 was determined; assay type: functional
Staphylococcus aureus [8] = test: Antibacterial activity against Staphylococcus aureus Smith was determined; assay type: functional
[9] = Evaluated for pharmacokinetic parameter Cmax in rabbit at the dose 20 mg/kg; assay type: ADME, organism-based, Oryctolagus cuniculus; design: dose 20 mg/kg; details: in vivo
[10] = Evaluated for pharmacokinetic parameter tmax in rabbit at the dose 20 mg/kg; assay type: ADME, organism-based, Oryctolagus cuniculus; design: dose 20 mg/kg; details: in vivo
[11] = Evaluated for pharmacokinetic parameter urine recovery in rat at the dose 50 mg/kg ( 0-24 hr ); assay type: ADME, organism-based; design: dose 50 mg/kg; details: read-out: UR
[12] = Evaluated for pharmacokinetic parameter urine recovery in mouse at the dose 20 mg/kg ( 0-24 hr ); assay type: ADME, organism-based; design: dose 20 mg/kg; details: read-out: UR
[13] = Evaluated for pharmacokinetic parameter half-life in mouse at the dose 20 mg/kg; assay type: ADME, organism-based; design: dose 20 mg/kg; details: in vivo
[14] = Evaluated for pharmacokinetic parameter area under curve in rabbit at the dose 20 mg/kg (0-4 hr ); assay type: ADME, organism-based, Oryctolagus cuniculus; design: time < 4 hr, dose 20 mg/kg; details: in vivo
Streptococcus pneumoniae = test: Antibacterial activity against Streptococcus pneumoniae IID 553 was determined; assay type: functional
Klebsiella pneumoniae [15] = test: Antibacterial activity against Klebsiella pneumoniae IFO 331 was determined; assay type: functional
[16] = Evaluated for pharmacokinetic parameter tmax in rat at the dose 50 mg/kg; assay type: ADME, organism-based; design: dose 50 mg/kg; details: in vivo
[17] = Evaluated for pharmacokinetic parameter half-life in rat at the dose 50 mg/kg; assay type: ADME, organism-based; design: dose 50 mg/kg; details: in vivo
Haemophilus influenzae = test: Antibacterial activity against Haemophilus influenzae ATCC 19418 was determined; assay type: functional
[18] = Evaluated for pharmacokinetic parameter area under curve in rat at the dose 50 mg/kg (0-8 hr); assay type: ADME, organism-based; design: time < 8 hr, dose 50 mg/kg; details: in vivo
[19] = Evaluated for pharmacokinetic parameter area under curve in mouse at the dose 20 mg/kg (0-4 hr); assay type: ADME, organism-based; design: time < 4 hr, dose 20 mg/kg; details: in vivo
[20] = Evaluated for pharmacokinetic parameter Cmax in rat at the dose 50 mg/kg; assay type: ADME, organism-based; design: dose 50 mg/kg; details: in vivo
[21] = Evaluated for pharmacokinetic parameter Cmax in mouse at the dose 20 mg/kg; assay type: ADME, organism-based; design: dose 20 mg/kg; details: in vivo
[22] = Evaluated for pharmacokinetic parameter half-life in rabbit at the dose 20 mg/kg; assay type: ADME, organism-based, Oryctolagus cuniculus; design: dose 20 mg/kg; details: in vivo
[23] = Evaluated for pharmacokinetic parameter urine recovery in rabbit at the dose 20 mg/kg ( 0-24 hr ); assay type: ADME, organism-based, Oryctolagus cuniculus; design: dose 20 mg/kg; details: read-out: UR
Micrococcus luteus [24] = test: Antibacterial activity against Micrococcus […] determined; assay type: functional
[25] = Evaluated for pharmacokinetic parameter tmax in mouse at the dose 20 mg/kg; assay type: ADME, organism-based; design: dose 20 mg/kg; details: in vivo

## CO/N=C(\C(=O)NC1C(=O)N2C(C(=O)O)=C(/C=C\c3scnc3C)CSC12)c1csc(N)n1 (stereo not drawn)
Staphylococcus aureus [1]
  MIC: 0.78 µg/mL (≈ 1.54 µM)
Proteus mirabilis
  MIC: 0.39 µg/mL (≈ 0.77 µM)
Enterococcus hirae
  MIC: > 100 µg/mL
Enterobacter cloacae
  MIC: 0.78 µg/mL (≈ 1.54 µM)
Escherichia coli [2]
  MIC: 0.39 µg/mL (≈ 0.77 µM)
Staphylococcus aureus [3]
  MIC: 0.78 µg/mL (≈ 1.54 µM)
Proteus vulgaris
  MIC: ≤ 0.006 µg/mL
Providencia rettgeri
  MIC: 0.025 µg/mL (≈ 0.0493 µM)
Klebsiella aerogenes
  MIC: 0.78 µg/mL (≈ 1.54 µM)
Moraxella catarrhalis
  MIC: ≤ 0.006 µg/mL
Micrococcus luteus [4]
  MIC: 0.025 µg/mL (≈ 0.0493 µM)
Serratia marcescens
  MIC: 0.39 µg/mL (≈ 0.77 µM)
Morganella morganii
  MIC: 0.2 µg/mL (≈ 0.395 µM)
Klebsiella pneumoniae [5]
  MIC: 0.025 µg/mL (≈ 0.0493 µM)
Escherichia coli [6]
  MIC: 0.39 µg/mL (≈ 0.77 µM)
[7]
  MIC: 0.39 µg/mL (≈ 0.77 µM)
Pseudomonas aeruginosa
  MIC: 12.5 µg/mL (≈ 24.7 µM)
Staphylococcus aureus [8]
  MIC: 0.78 µg/mL (≈ 1.54 µM)

## C=CC1=C(C(=O)O)N2C(=O)[C@@H](NC(=O)/C(=N\O)c3csc(N)n3)[C@H]2SC1 [CEFDINIR]
[9]
  Cmax: 5800 ng/mL
Staphylococcus aureus [1]
  MIC: 0.39 µg/mL (≈ 0.986 µM)
[10]
  Tmax: 1 h
[11]
  dose excreted: 13.2%
Proteus mirabilis
  MIC: 0.2 µg/mL (≈ 0.506 µM)
Enterococcus hirae
  MIC: 100 µg/mL (≈ 253 µM)
[12]
  dose excreted: 10%
[13]
  half-life: 0.6 h
Enterobacter cloacae
  MIC: 0.78 µg/mL (≈ 1.97 µM)
[14]
  AUC at 4 h: 64200 ng·h/mL
Escherichia coli [2]
  MIC: 0.39 µg/mL (≈ 0.986 µM)
Streptococcus pneumoniae
  MIC: 0.1 µg/mL (≈ 0.253 µM)
Staphylococcus aureus [3]
  MIC: 0.39 µg/mL (≈ 0.986 µM)
Proteus vulgaris
  MIC: 0.39 µg/mL (≈ 0.986 µM)
Klebsiella pneumoniae [15]
  MIC: 0.1 µg/mL (≈ 0.253 µM)
[16]
  Tmax: 2 h
Providencia rettgeri
  MIC: ≤ 0.006 µg/mL
Klebsiella aerogenes
  MIC: 1.56 µg/mL (≈ 3.95 µM)
[17]
  half-life: 1.5 h
Haemophilus influenzae
  MIC: 0.39 µg/mL (≈ 0.986 µM)
[18]
  AUC at 8 h: 13200 ng·h/mL
Moraxella catarrhalis
  MIC: 0.2 µg/mL (≈ 0.506 µM)
Serratia marcescens
  MIC: 1.56 µg/mL (≈ 3.95 µM)
[19]
  AUC at 4 h: 10000 ng·h/mL
Morganella morganii
  MIC: 6.25 µg/mL (≈ 15.8 µM)
[20]
  Cmax: 6000 ng/mL
[21]
  Cmax: 2500 ng/mL
[22]
  half-life: 1.9 h
Escherichia coli [6]
  MIC: 0.39 µg/mL (≈ 0.986 µM)
[7]
  MIC: 0.1 µg/mL (≈ 0.253 µM)
Pseudomonas aeruginosa
  MIC: > 100 µg/mL
Staphylococcus aureus [8]
  MIC: 0.2 µg/mL (≈ 0.506 µM)
[23]
  dose excreted: 64.2%
Micrococcus luteus [24]
  MIC: 0.05 µg/mL (≈ 0.126 µM)
[25]
  Tmax: 1 h
